The values that follow come from patent US20220088195A1, “Prevention or mitigation of T-cell bispecific antibody-related adverse effects” (Hoffmann-La Roche Inc., priority 2020, published 2022).

In data set [1] the test system is A375 NucLight Red (NLR) target cells. The data set is described as follows: Incucyte real time killing assay, PBMCs + RMF peptide-pulsed A375 NLR target cells + HLA-A2 WT1-TCB with escalating dasatinib. It counts as cell-based, human. The method, then:
(§1) FIG. 1. Real time killing of red fluorescent A375 cells loaded with RMF peptides by 10 nM HLA-A2 WT-1-TCB (A) and of red fluorescent MKN45 cells by 1 nM CEA-TCB (B) in the presence of different dasatinib concentrations ranging from 100 nM to 0 nM. (A) A375 NucLight Red (NLR) target cells were pulsed with RMF peptides (2 hours before killing assay) and co-cultured with HLA-A2 WT1-TCB, dasatinib (dasa) and PBMCs, effector to target ratio (E:T)=10:1 (E:T=50 000 PBMCs:5000 target cells). Killing was followed by Incucyte® (1 scan every 3 hours, zoom 10×, phase and red 400 ms acquisition time). % Killing was measured by normalizing total red area with values at t=0 hour and target cells+PBMCs+dasatinib (without TCB) control wells for each time point. Means of technical replicates+/−SEM for 1 donor. (B) MKN45 NLR target cells were co-cultured with CEA TCB, dasatinib and PBMCs, E:T=10:1 (E:T=50 000 PBMCs:5000 target cells). Killing was followed by Incucyte (1 scan every 3 hours, zoom 10×, phase and red 400 ms acquisition time). % Killing was measured by normalizing total red area with values at t=0 hour and target cells+PBMCs+dasatinib control wells for each time point. Means of technical replicates+/−SEM for 1 donor.
(§2) To assess the inhibitory effect of dasatinib on TCB-mediated target-cell killing, we conducted killing assays using peripheral blood mononuclear cells (PBMCs), NucLight Red (NLR) target-cells and respective TCB in media supplemented with escalating concentrations of dasatinib. The Incucyte® system (Essen Bioscience) was used to capture the loss of red fluorescent protein signal over time as a readout of target-cell killing.

The conditions of data set [2]: 146 patients, 100 mg dasatinib QD; cited from earlier work.
For another data set, the system named is MKN45 NLR target cells. The data set is described as follows: Incucyte real time killing assay, PBMCs + MKN45 NLR target cells + CEA-TCB with escalating dasatinib. It counts as cell-based, human. The method, then:
as §1, §2

For data set [3], the system named is CD4+ and CD8+ T cells. The data set can be described thus: T cell activation (CD25, CD69 by FACS) in SKM-1 killing assay with HLA-A2 WT-1-TCB, dasatinib added after 24 hours. As to conditions: 48 hours; 100 nM dasatinib added at 24h; 10 nM HLA-A2 WT-1-TCB. The data set is classed as cell-based, human. The method, then:
(§3) FIG. 3. In vitro killing assay set-up and timelines. PBMCs were co-cultured with SKM-1 target cells (E:T=10:1) and 10 nM HLA-A2 WT-1-TCB. Dasatinib (100 nM) was added after 24 hours of activation. PBMCs were labelled with CellTrace™ Violet (CTV) to allow T cell proliferation assessment.
FIG. 4. T cell activation. CD25 and CD69 expression on CD4+ and CD8+ T cells was measured by FACS after 24h and 48h of activation in the presence and absence of dasatinib, according to the assay of FIG. 3. (A) CD25 expression on CD8+ T cells, (B) CD25 expression on CD4+ T-cells, (C) CD69 expression on CD8+ T cells, (D) CD69 expression on CD4+ T cells.
To evaluate if dasatinib could act as a rapid and potent inhibitor of activated T cells, we first stimulated PBMCs on SKM-1 tumor cells with HLA-A2 WT-1-TCB for 24 hours. We then supplemented these activated effector cells with 100 nM dasatinib (FIG. 3).
Upon addition of 100 nM dasatinib at 24h, expression of early activation marker CD69 and late activation marker CD25 on CD4+ and CD8+ T cells at 48 hours was found at an intermediate level between expression measured at 24 hours and expression measured at 48 hours in samples with no dasatinib treatment (FIG. 4).
A general note: A flow cytometer gives signals particle by particle.

For data set [4] the following is noted: blood of mice; cited from earlier work.
The test system of data set [5] is CD4+ and CD8+ T cells. The data set is described as follows: T cell proliferation (CTV dye dilution) and T cell counts in SKM-1 killing assay with HLA-A2 WT-1-TCB. The data set is classed as cell-based, human. The method, then: as §3
FIG. 6. T cell proliferation. In the assay of FIG. 3, proliferation of CD4+ (A) and CD8+ (B) T cells was measured by FACS 144h after stimulation with HLA-A2 WT-1 TCB by analysis of CTV dye dilution.
FIG. 7. Counts of CD4+ and CD8+ T cells. In the assay of FIG. 3, CD4+ (A) and CD8+(B) T cells counts were measured by FACS, mean of 3 donors+/−SD. paired t test, one tailed p value: 0.1234 (ns), 0.0332 (*), 0.0021 (**), 0.0002 (***), <0.0001 (****).
Furthermore, we assessed T cell proliferation 120 hours after the addition of 100 nM dasatinib in the killing assay by measuring the dilution peaks of the CellTrace™ violet (CTV) dye by flow cytometry.

Data set [6] has as its system IFN-γ, IL-2 and TNF-α release. The data set is described as follows: Cytokine release in supernatants of the CEA-TCB killing assay (Luminex, 96 hours). It counts as cell-based, human. To be noted: dasatinib above 12.5 nM, 1 nM CEA-TCB.
Protocol: Cytokine release. Supernatant were collected at the endpoint (96 hours) of the assay in FIG. 1 and cytokines ((A) IFNγ, (B) IL-2, (C) TNF-α) measured by multiplex cytokine analysis (Luminex). 1 nM CEA-TCB, 1 donor.
Data set [7] concerns IL-2, IFN-γ, TNF-α, IL-6, GM-CSF and IL-8 release. The data set can be described thus: CD19-TCB-induced cytokine release in the SUDLH-8 assay (Luminex). The data set is classed as cell-based, human. To be noted: 100 nM dasatinib, monohydrate. The method, then:
The levels of IL-2 (A), IFN-γ (B), TNF-α (C), IL-6 (D), GM-CSF (E) and IL-8 (F) were measured by Luminex in the supernatant of the assay described in FIG. 26.
FIG. 31. […] The levels of IFN-γ (A), TNF-α (B), IL-2 (C), IL-6 (D), GM-CSF (E) and IL-8 (F) were measured by Luminex in the supernatant of the assay described in FIG. 26.
The killing of CTV labelled SUDLH-8 cells was measured by flow cytometry using a Live/Dead Near Infra Red (NIR) dye. […] The expression of CD69 and CD25 were measured on CD4+ (FIG. 28) and CD8+(FIG. 29) T cells by flow cytometry as a readout for T cell activation. […] Lastly, the cytokine levels were analyzed in the supernatants of the assay by Luminex to evaluate the effect of dasatinib on CD19-TCB-induced cytokine release (FIGS. 30 and 31).

Entries after “also recorded” stand apart in the source; their conditions may differ.

As for `Cc1nc(Nc2ncc(C(=O)Nc3c(C)cccc3Cl)s2)cc(N2CCN(CCO)CC2)n1` [dasatinib, N-(2-chloro-6-methylphenyl)-2-[[6-[4-(2-hydroxyethyl)-1-piperazinyl]-2-methyl-4-pyrimidinyl]amino]-5-thiazole carboxamide monohydrate], the inhibition at 0.0125 µM stood at 78.2% in data set [1] (Homo sapiens, A-375, 12.5 nM dasatinib, 10 nM HLA-A2 WT-1-TCB, read-out: inhibition of target-cell killing) and 69% with MKN45 NLR target cells (Homo sapiens, MKN-45, 12.5 nM dasatinib, 1 nM CEA-TCB, read-out: inhibition of target-cell killing). Moreover, the inhibition at 0.05 µM in data set [1] (Homo sapiens, A-375, 50 nM (24.4 ng/mL) dasatinib, 10 nM HLA-A2 WT1-TCB, read-out: inhibition of target-cell killing) was determined as 89%; with MKN45 NLR target cells (Homo sapiens, MKN-45, 50 nM (24.4 ng/mL) dasatinib, 1 nM CEA-TCB, read-out: inhibition of target-cell killing) it was 88.2%. Also, the inhibition at 0.1 µM was 86.5% in data set [1] (Homo sapiens, A-375, 100 nM (48.8 ng/mL) dasatinib, 10 nM HLA-A2 WT1-TCB, read-out: inhibition of target-cell killing) and 90.4% in the data set on MKN45 NLR target cells (Homo sapiens, MKN-45, 100 nM (48.8 ng/mL) dasatinib, 1 nM CEA-TCB, read-out: inhibition of target-cell killing). The inhibition of killing entry is given as “only partially inhibited killing” in data set [1] (dasatinib concentrations below 12.5 nM, 10 nM HLA-A2 WT-1-TCB) and “only partially inhibited killing” in the data set with MKN45 NLR target cells (dasatinib concentrations below 12.5 nM, 1 nM CEA-TCB). Besides, the Cmax in data set [2] is 54.6 ng/mL. For the same compound, in data set [2], the Cmin is 2.61 ng/mL. In the data set on MKN45 NLR target cells (PBMCs stimulated with both TCB (CEA-TCB, HLA-A2 WT-1-TCB)), the “threshold in vitro concentration for preventing T cell mediated target-cell lysis” value came to 12.5 nM. Further, the “CD25 and CD69 expression on CD4+ and CD8+ T cells” value in the data set on CD4+ and CD8+ T cells [3] is “rapidly blocked the expression of phenotypic activation markers”. Besides, the half-life entry in data set [4] is “around 6 hrs”. For the same compound, in the data set with CD4+ and CD8+ T cells [5] (100 nM dasatinib added at 24 h, 120 hours after addition, 10 nM HLA-A2 WT-1-TCB), the “TCB-induced T cell proliferation (CTV dilution)” value was “inhibited TCB-induced T cell proliferation with a stronger impact on CD4+ T cells than CD8+ T cells”. Moreover, the “CD4+ and CD8+ T cell counts” value in the data set on CD4+ and CD8+ T cells [5] (100 nM dasatinib versus positive control without dasatinib) is “significantly higher in positive control samples which were not treated with 100 nM dasatinib, than in samples treated with 100 nM dasatinib”. Moreover, the “release of IFN-γ, IL-2 and TNF-α” value in data set [6] is “prevented the release”. Moreover, the “release of IL-2, IFN-γ, TNF-α, IL-6, GM-CSF and IL-8” value in data set [7] is listed as “prevents CD19-TCB-induced cytokine release; also recorded: prevented the release”.

In general, inhibition refers to the change of the read-out against control, counted positive when it falls. The Cmax is the maximum level reached in the sampled fluid or tissue.
